Laboratory results from US6734181B2, “Pyrrolopyridazine compounds” (Sankyo Company, Limited, priority 2000, dated 2004).

Tests used:
[1] = molecular target: T1, proton potassium-adenosine triphosphatase (H+.K+-ATPase) (Sus scrofa, UniProt P19156); assay: Test on activity of proton potassium-adenosine triphosphatase (H+.K+-ATPase); format: biochemical; details: swine gastric mucosal microsomal fraction, pH 6.85, 37° C.; read-out: 50% inhibitory concentration (IC50) against proton potassium-adenosine triphosphatase (converted)
T1 construct: A microsomal fraction prepared in accordance with the method of Sachs, et al; from tissue; host or cells: swine gastric mucosa, microsomal fraction (density gradient ultracentrifugation)
T1 sequence (P19156 2-1034 limits assumed): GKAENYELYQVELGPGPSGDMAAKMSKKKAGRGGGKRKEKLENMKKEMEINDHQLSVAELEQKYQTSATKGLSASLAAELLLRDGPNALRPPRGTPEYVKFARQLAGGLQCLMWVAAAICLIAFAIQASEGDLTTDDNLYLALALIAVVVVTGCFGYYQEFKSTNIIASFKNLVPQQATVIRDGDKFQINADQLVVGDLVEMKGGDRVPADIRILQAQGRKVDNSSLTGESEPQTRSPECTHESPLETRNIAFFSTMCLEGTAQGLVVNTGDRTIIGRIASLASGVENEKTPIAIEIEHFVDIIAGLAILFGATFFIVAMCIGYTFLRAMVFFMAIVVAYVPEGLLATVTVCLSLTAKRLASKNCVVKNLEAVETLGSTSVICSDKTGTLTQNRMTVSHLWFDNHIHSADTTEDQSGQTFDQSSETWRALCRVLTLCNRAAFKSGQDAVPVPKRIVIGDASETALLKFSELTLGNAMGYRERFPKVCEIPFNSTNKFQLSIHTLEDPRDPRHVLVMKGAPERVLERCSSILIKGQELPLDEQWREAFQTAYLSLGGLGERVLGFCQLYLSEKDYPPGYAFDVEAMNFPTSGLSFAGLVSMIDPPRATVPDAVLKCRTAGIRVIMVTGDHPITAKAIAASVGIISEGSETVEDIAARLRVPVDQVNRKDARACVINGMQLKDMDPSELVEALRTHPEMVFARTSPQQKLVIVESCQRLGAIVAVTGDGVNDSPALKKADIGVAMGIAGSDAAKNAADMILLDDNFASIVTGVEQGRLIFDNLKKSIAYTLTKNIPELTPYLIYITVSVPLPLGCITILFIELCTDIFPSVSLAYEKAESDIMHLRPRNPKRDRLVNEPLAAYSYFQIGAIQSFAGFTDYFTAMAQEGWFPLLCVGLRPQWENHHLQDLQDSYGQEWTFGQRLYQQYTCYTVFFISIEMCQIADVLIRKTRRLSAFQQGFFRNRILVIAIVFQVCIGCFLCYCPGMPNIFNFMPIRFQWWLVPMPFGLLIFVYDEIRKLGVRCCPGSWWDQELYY
T1 sequence (P18434 whole entry partner): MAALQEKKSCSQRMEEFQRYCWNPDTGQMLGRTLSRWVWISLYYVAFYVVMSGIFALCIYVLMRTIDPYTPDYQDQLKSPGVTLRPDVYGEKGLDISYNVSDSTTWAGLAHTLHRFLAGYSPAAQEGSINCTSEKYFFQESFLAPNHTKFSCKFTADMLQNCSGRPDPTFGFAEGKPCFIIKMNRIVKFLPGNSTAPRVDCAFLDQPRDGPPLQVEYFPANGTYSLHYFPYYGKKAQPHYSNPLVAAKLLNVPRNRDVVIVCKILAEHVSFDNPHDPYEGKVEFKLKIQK
Experimental: Test on Activity of Proton•potassium-adenosine Triphosphatase (H^+.K^+-ATPase) A microsomal fraction prepared in accordance with the method of Sachs, et al. [J. Bio. Chem., 251, 7690(1976)] by homogenizing a fresh gastric mucosal layer of swine and then subjecting the homogenate to density gradient ultra centrifugation was employed as a proton potassium-adenosine triphosphatase preparation. A solution (10 μl) of a test compound dissolved in dimethyl sulfoxide was added to 0.75 ml of a 70 mM tris hydrochloric acid buffer (5 mM magnesium chloride, 20 mM potassium chloride, pH=6.85) containing 30 to 80 μg/ml, in terms of the protein concentration, of the enzyme preparation. The mixture was incubated with 200 times/min of agitation at 37° C. for 45 minutes. The enzymatic reaction was started by adding 0.25 ml of an 8 mM solution of disodium adenosine triphosphate. After this enzymatic reaction was continued for 20 minutes, 1 ml of a 10% trichloroacetic acid—activated charcoal (100 mg) solution was added to terminate the reaction. […] The amount of inorganic phosphoric acid in a reaction mixture free from potassium chloride was also measured. By subtracting this amount from the amount of inorganic phosphoric acid in the presence of potassium chloride, protonpotassium-adenosine triphosphatase activity (H^+.K^+-ATPase) was determined. […]

[2] = test system: gastric acid secretion; assay: Test for inhibition on gastric acid secretion in rats (pylorus ligation); format: in vivo; details: pylorus-ligated rats, orally administered, four hours after ligation
Experimental: Test for Inhibition on Gastric Acid Secretion in Rats
After a group of rats was fasted overnight, they were subjected to midline abdominal incision and their pylorus was ligated under anesthesia with ether. The stomach and duodenum were returned to their original positions in the body, followed by closing at the abdominal incision part. A test compound (0.3 to 10 mg/ml) was suspended in an aqueous solution containing 0.5% of sodium carboxymethylcellulose and 0.4% of Tween 80 (trade mark). The resulting suspension (1 ml/kg of body weight) was orally administered to the rats through a stomach tube. Four hours after the ligation, the rats were sacrificed by inhalation of CO2 gas. They were subjected to abdominal incision to remove their stomach. The content of the stomach was collected in a glass-made graduated centrifuge tube. After centrifugation, the amount (ml) of the supernatant and the amount (ml) of the precipitate were measured. The precipitate of the amount exceeding 0.5 ml was regarded as feces and excluded from the data. The supernatant ([…]) was poured into a test tube. Distilled water (4 ml) was added to the solution, and the solution was titrated to pH 7.0 with 0.01 N sodium hydroxide. […] Each parameter was calculated in accordance with the following equations: […]

[3] = test system: Helicobacter pylori strains 9470, 9472 and 9474; assay: Antibacterial action against Helicobacter pylori (MIC, agar dilution); format: cell-based; details: 72 h, 37° C., 3 days, microaerophilic conditions, read-out: MIC (Minimum Inhibitory Concentration)
Experimental: Antibacterial Action Against Helicobacter Pylori The antibacterial activity of the compound of the invention was evaluated by using Helicobacter pylori strains 9470, 9472 and 9474 and determining MIC (Minimum Inhibitory Concentration) of the compound of the invention against Helicobacter pylori. Helicobacter pylori was cultured by plating for 4 days. A medium was prepared by dissolving Brain Heart Infusion Agar (product of Difco Laboratories) in a prescribed amount of distilled water, sterilizing in an autoclave, adding equine blood (product of Nippon Seibutsu Zairyo) to give a concentration thereof of 7% and then solidifying the mixture. Under microaerophilic conditions, Helicobacter pylori which had been cultured at 37° C. for 4 days was suspended in physiological saline to give its viable count of about 10^8 CFU/ml. The suspension was then diluted to 100 times and a portion (about 10 μl) of the diluted suspension was inoculated in a medium for measuring MIC. The medium employed for measuring MIC has the same composition as the preculture medium. A compound of this invention was dissolved in dimethyl sulfoxide (DMSO) and two-fold serial dilutions were made with sterilized water. After mixing the solution and the medium in a ratio of 1:99, a solidified product in the Petri dish was employed as an MIC measuring medium. […]

Cc1c(C=O)c2cnnc(OCc3ccc(F)cc3)c2n1C[C@H]1C[C@@H]1C
melting point: 138.5 to 139.5 °C

CC(=O)OCc1c(C)n(C[C@H]2C[C@@H]2C)c2c(OCc3ccc(F)cc3)nncc12 [Example 1, 3-Acetoxymethyl-7-(4-fluorobenzyloxy)-2-methyl-1-[(1S,2S)-2-methylcyclopropylmethyl]pyrrolo[2,3-d]-pyridazine]
melting point: 122 to 123 °C

Cc1c(CO)c2cnnc(OCc3ccc(F)cc3)c2n1C[C@H]1C[C@@H]1C [Example 2, 7-(4-Fluorobenzyloxy)-3-hydroxymethyl-2-methyl-1-[(1S,2S)-2-methylcyclopropylmethyl]pyrrolo[2,3-d]-pyridazine]
IC50 [1]: 42.2 nM
50% inhibitory dose (ID50), gastric acid output [2]: less than 10 mg/kg
MIC [3]: < 12.5 µg/mL
melting point: 128 to 129 °C
